In patent EP0466944A1, “4H-3,1-BENZOXAZIN-4-ONE COMPOUND AND ELASTASE INHIBITOR COMPOSITION CONTAINING THE SAME” (TEIJIN LIMITED, priority 1990, dated 1991):

Test system: human purulent sputum elastase
Experiment: Inhibitory effect on pulmonary hemorrhage in elastase-given hamsters (hemoglobin in bronchoalveolar lavage fluid)
Type: in vivo, Syrian Golden Hamsters
Conditions: 1 mg/kg through respiratory tract 30 minutes before elastase (1 mg/kg), lavage three hours after elastase
Protocol: The efficacy of the compounds of the invention in vivo can be evaluated by the following procedures. In other words, a certain dose of a solution or dispersion of the compound of the invention is given through the respiratory tract, then human purulent sputum elastase is given through the respiratory tract after a certain time. The bronchoalveolar lavage were performed at a definite time after the elastase treatment and the hemoglobin is determined in the bronchoalveolar lavage fluids. The pulmonary hemorrhage is compared with that when a solution containing no compound of the present invention is given to measure the hemorrhage-inhibitory effect of the compounds of the present invention (Bonney et al., J. Cellular Biochemistry, 39, 47 - 53, (1989)).
The compounds according to the invention listed in Table 3 were dissolved or dispersed in 0.01 M phosphate-buffered physiological saline solution (pH 7.5), given to Syrian Golden Hamsters (body weight: about 100 g) 1 mg/kg through respiratory tract, then 30 minutes later, human purulent sputum elastase was given (1 mg/kg) through respiratory tract. Three hours after elastase administration, the animals were sacrificed by bleeding to open their chests and the bronchoalveolar lavage was performed with physiological saline solution. The hemoglobin in the lavage fluid was determined by the cyanmethemoglobin method. […]

Cc1cc(NC(=O)C(Cc2ccccc2)NC(=O)OCc2ccccc2)cc2nc(NC(C)C)oc(=O)c12 (stereo not shown) [Comparative example 1]
inhibition rate of pulmonary hemorrhage: weak
